Test results taken from patent US8003630B2, “Combinatorial therapies for the treatment of neoplasias using the opioid growth factor receptor” (The Penn State Research Foundation, priority 2004, dated 2011).

How the values were obtained:
SCC-1 cells [1] = assay: Cell proliferation assays of SCC-1 cells (MTS or cell counting), Example 8; format: cell-based, human; settings: for decrease from control levels in absorbency readings: opioids 10^−6 M daily; for reduction of cell number from control levels: SCC-1, MTS, carboplatin 10^−7 M
Procedure: The UM-SCC-1 cell line (SCC-1) was derived from a well-differentiated recurrent squamous cell carcinoma in the floor of the mouth of a person (25). This cell line was obtained from The University of Michigan, Cancer Research Laboratory (Thomas E. Carey, Ph.D., Director). CAL-27 human squamous cell carcinoma cell line, derived from a poorly differentiated carcinoma of the tongue in a person ([…]), was obtained from the American Type Culture Collection (Manassas, Va.). Both cell lines were grown in Dulbecco's MEM (modified) media supplemented with 10% fetal calf serum, 1.2% sodium bicarbonate, and antibiotics (5,000 Units/ml penicillin, 5 mg/ml streptomycin, 10 mg/ml neomycin). The cell cultures were maintained in a humidified atmosphere of 7% CO2/93% air at 37° C.
Cells were seeded at equivalent amounts into either 6-well or 96-well plates (Falcon) and counted 24 hr later to determine plating efficiency.
The dosage of carboplatin selected was based on previous reports (27, 28), as well as preliminary studies in our laboratory.
Cell number was recorded either by using the MTS proliferation bioassay (Cell Titer 96 One Solution, Promega, Madison, Wis.) and measuring absorbency after 4 hr on a Biorad (Model 3550) plate reader at 490 nm with a 750 nm background absorbance screening, or by directly counting cells. The MTS assay utilized 10 wells/treatment. For manual counts, cells were harvested by trypsinization with 0.25% trypsin/0.53 mM EDTA, centrif uiged, and counted with a hemacytometer. Cell viability was determined by trypan blue staining. At least two aliquots per well, and 4-10 wells/treatment, were counted at each time for manual counting.
For some experiments, the rate of growth over a 96-hr period of time was calculated using linear regression analyses. The slopes of the lines (number of cells/hr) were compared by analysis of variance. All calculations were performed with GraphPad Prism software.

MIA PaCa-2 cells = assay: Growth assays of MIA PaCa-2 cells (MTS assay or cell counting), Example 7; format: cell-based, human; settings: for inhibition of cell number relative to controls: MIA PaCa-2, opioids 10^−6 M daily, 96 hr
Procedure: MIA PaCa-2 and PANC-1 human pancreatic adenocarcinoma cell lines were purchased from the American Type Culture Collection (Manasass, Va.). MIA PaCa-2 cells were derived from an undifferentiated epithelial carcinoma occurring in the body and tail of the pancreas in a person. The PANC-1 cells were derived from an undifferentiated carcinoma from the head of the pancreas in a person. MIA PaCa-2 and PANC-1 cells were grown in Dulbecco's MEM (modified) media; media was supplemented with 10% fetal calf serum, 1.2% sodium bicarbonate, and antibiotics (5,000 Units/ml penicillin, 5 mg/ml streptomycin, 10 mg/ml neomycin), and the cells were maintained in a humidified atmosphere of 7% CO2/93% air at 37° C.
MIA PaCa-2 cells were seeded at equivalent amounts into either 75 cm^2 flasks, 6-well plates, or 96-well plates (Falcon) and counted 24 hr later to determine plating efficiency. Growth assays for PANC-1 cells were conducted in 6-well plates (Falcon). Compounds or sterile water were added beginning 24 hr after seeding (=0 hr), and both media and compounds were replaced daily. All drugs were prepared in sterile water and dilutions represent final concentrations of the compounds.
Cell number was recorded either by using a mitogenic bioassay, the MTS assay (Cell Titer 96 One Solution, Promega, Madison, Wis.), and measuring absorbency after 4 hr on a Biorad (Model 3550) plate reader at 490 nm, or by counting cells. For manual counts, cells were harvested with a solution of 0.25% trypsin/0.53 mM EDTA, centrif uiged, and counted with a hemacytometer. Cell viability was determined by trypan blue staining. At least two aliquots per flask or 4-10 wells/treatment were counted at each time.

SCC-1 cells [2] = assay: Growth curves of SCC-1 cells, cell proliferation (MTT) assay, absorbency
Description: Cells were counted using a standard MTT assay. In general, each data point represents the average absorbency taken from 10 wells/treatment; error bars represent the S.E.M.

Molecule	decrease from control levels in absorbency readings (SCC-1 cells [1]; SCC-1)	inhibition of cell number relative to controls (MIA PaCa-2 cells)	also measured
C[C@@H](NC(=O)[C@@H](N)Cc1ccc(O)cc1)C(=O)NCC(=O)N(C)[C@@H](Cc1ccccc1)C(=O)NCCO [DAMGO, [D-Ala^2, MePhe^4, Glyol^5]-enkephalin]	none of the drugs utilized had any inhibitory or stimulatory effect on growth	none of the other drugs utilized had any inhibitory or stimulatory effect on growth	
[D-Pen^2,5]-enkephalin [DPDPE]	none of the drugs utilized had any inhibitory or stimulatory effect on growth	none of the other drugs utilized had any inhibitory or stimulatory effect on growth	
dynorphin 1-13 (YGGFLRRIRPKLK; Dynorphin A(1-13); UniProt P01213 207-219, looked up, fragment)	none of the drugs utilized had any inhibitory or stimulatory effect on growth		
dynorphin A1-8 (YGGFLRRI; Dynorphin A(1-8); UniProt P01213 207-214, looked up, fragment)		none of the other drugs utilized had any inhibitory or stimulatory effect on growth	
β-endorphin (YGGFMTSEKSQTPLVTLFKNAIIKNAYKKGE; Beta-endorphin; UniProt P01189 237-267, looked up)	none of the drugs utilized had any inhibitory or stimulatory effect on growth	none of the other drugs utilized had any inhibitory or stimulatory effect on growth	
endomorphin-1	none of the drugs utilized had any inhibitory or stimulatory effect on growth	none of the other drugs utilized had any inhibitory or stimulatory effect on growth	
endomorphin-2	none of the drugs utilized had any inhibitory or stimulatory effect on growth	none of the other drugs utilized had any inhibitory or stimulatory effect on growth	
CN1CC[C@]23c4c5ccc(O)c4O[C@H]2[C@@H](O)C=C[C@H]3[C@H]1C5 [morphine]	none of the drugs utilized had any inhibitory or stimulatory effect on growth	none of the other drugs utilized had any inhibitory or stimulatory effect on growth	
CC(C)C[C@@H](NC(=O)[C@H](Cc1ccccc1)NC(=O)CNC(=O)[C@@H](C)NC(=O)[C@@H](N)Cc1ccc(O)cc1)C(=O)O [DADLE, [D-Ala-D-Leu-enkephalin]]	none of the drugs utilized had any inhibitory or stimulatory effect on growth	none of the other drugs utilized had any inhibitory or stimulatory effect on growth	
N.N.O=C([O-])C1(C(=O)[O-])CCC1.[Pt+2] [carboplatin]			decrease in cell number relative to controls (SCC-1 cells [2]; 48 h, carboplatin 10^−6 M and/or OGF 10^−6 M): 5.3%; decrease in cell number relative to controls (SCC-1 cells [2]; 72 h, carboplatin 10^−6 M and/or OGF 10^−6 M): 21.8%; decrease in cell number relative to controls (SCC-1 cells [2]; 72 h, carboplatin 10^−7 M alone or with OGF 10^−6 M): 18.7%; decrease in cell number relative to controls (SCC-1 cells [2]; 96 h, carboplatin 10^−6 M and/or OGF 10^−6 M): 24.9%; decrease in cell number relative to controls (SCC-1 cells [2]; 96 h, carboplatin 10^−7 M alone or with OGF 10^−6 M): 21%; reduction of cell number from control levels (SCC-1 cells [1]; 72 hr): 19%; reduction of cell number from control levels (SCC-1 cells [1]; 96 hr): 21%
C=CCN1CC[C@]23c4c5ccc(O)c4O[C@H]2C(=O)CC[C@@]3(O)[C@H]1C5 [naloxone]			effect of naloxone on growth and growth inhibition (SCC-1 cells [1]; SCC-1, naloxone 10^−6 M): had no effect on growth; effect of naloxone on growth and growth inhibition (MIA PaCa-2 cells; MIA PaCa-2, 96 hr, naloxone 10^−6 M): had no effect on the growth of MIA PaCa-2 cells
